# Key:
# Test in all cases: relative viability (nuclei count vs DMSO), 5 days (fraction); higher = more cells survive
# LCLC-103H = tested on: LCLC-103H
# Summary of the method: (§1)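 Relative viability divides the nuclei count in treated wells by that in vehicle wells. Lung cancer cell lines were seeded in 1536-well plates, dosed by pin tool the next day, and fixed and stained after 5 days in one step with final 0.05% Triton X-100, 1% formaldehyde and 1 ug/ml Hoechst. Dosing was a single drug or a fixed anchor-drug dose plus five library-drug doses (not always all listed) in √10 steps, and values are medians of duplicate plates imaged at 4×.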
# NCI-H1666 = tested on: NCI-H1666
# Summary of the method: as §1
# LOU-NH91 = tested on: LOU-NH91
# Summary of the method: as §1
# NCI-H647 = tested on: NCI-H647
# Summary of the method: as §1
# PC-14 = tested on: PC-14
# Summary of the method: as §1
# LXF-289 = tested on: LXF-289
# Summary of the method: as §1
# HCC-827 = tested on: HCC-827
# Summary of the method: as §1
# LK-2 = tested on: LK-2
# Summary of the method: as §1
# NCI-H727 = tested on: NCI-H727
# Summary of the method: as §1
# BEN = tested on: BEN
# Summary of the method: as §1
# NCI-H2170 = tested on: NCI-H2170
# Summary of the method: as §1
# NCI-H661 = tested on: NCI-H661
# Summary of the method: as §1
# NCI-H1993 = tested on: NCI-H1993
# Summary of the method: as §1
# SK-MES-1 = tested on: SK-MES-1
# Summary of the method: as §1
# HOP-62 = tested on: HOP-62
# Summary of the method: as §1
# NCI-H441 = tested on: NCI-H441
# Summary of the method: as §1
# RERF-LC-KJ = tested on: RERF-LC-KJ
# Summary of the method: as §1
# NCI-H1437 = tested on: NCI-H1437
# Summary of the method: as §1
# EKVX = tested on: EKVX
# Summary of the method: as §1
# ChaGo-K-1 = tested on: ChaGo-K-1
# Summary of the method: as §1
# NCI-H2126 = tested on: NCI-H2126
# Summary of the method: as §1
# NCI-H1944 = tested on: NCI-H1944
# Summary of the method: as §1
# NCI-H1355 = tested on: NCI-H1355
# Summary of the method: as §1
structure (smiles),measurement,setting,value
Cc1csc(=NC2CCCCC2)n1/N=C/c1ccc(O)c(O)c1O [MIM1] + Cc1cc(Nc2cc(N3CCN(C)CC3)nc(Sc3ccc(NC(=O)C4CC4)cc3)n2)n[nH]1 [Tozasertib] (partner 0.1 µM),relative viability,LCLC-103H; first compound 0.2 µM,0.609
same,relative viability,LCLC-103H; first compound 0.6325 µM,0.426
same,relative viability,LCLC-103H; first compound 2 µM,0.505
same,relative viability,LCLC-103H; first compound 6.325 µM,0.41
same,relative viability,LCLC-103H; first compound 20 µM,0.268
same,relative viability,NCI-H1666; first compound 0.2 µM,0.618
same,relative viability,NCI-H1666; first compound 0.6325 µM,0.625
same,relative viability,NCI-H1666; first compound 2 µM,0.575
same,relative viability,NCI-H1666; first compound 6.325 µM,0.47
same,relative viability,NCI-H1666; first compound 20 µM,0.446
same,relative viability,LOU-NH91; first compound 0.2 µM,0.65
same,relative viability,LOU-NH91; first compound 0.6325 µM,0.657
same,relative viability,LOU-NH91; first compound 2 µM,0.51
same,relative viability,LOU-NH91; first compound 6.325 µM,0.581
same,relative viability,LOU-NH91; first compound 20 µM,0.225
same,relative viability,NCI-H647; first compound 0.2 µM,0.262
same,relative viability,NCI-H647; first compound 0.6325 µM,0.27
same,relative viability,NCI-H647; first compound 6.325 µM,0.247
same,relative viability,NCI-H647; first compound 20 µM,0.11
same,relative viability,PC-14; first compound 0.2 µM,0.526
same,relative viability,PC-14; first compound 0.6325 µM,0.593
same,relative viability,PC-14; first compound 2 µM,0.413
same,relative viability,PC-14; first compound 6.325 µM,0.502
same,relative viability,PC-14; first compound 20 µM,0.357
same,relative viability,LXF-289; first compound 0.2 µM,0.167
same,relative viability,LXF-289; first compound 0.6325 µM,0.217
same,relative viability,LXF-289; first compound 2 µM,0.198
same,relative viability,LXF-289; first compound 6.325 µM,0.181
same,relative viability,LXF-289; first compound 20 µM,0.117
same,relative viability,HCC-827; first compound 0.2 µM,0.43
same,relative viability,HCC-827; first compound 0.6325 µM,0.404
same,relative viability,HCC-827; first compound 2 µM,0.411
same,relative viability,HCC-827; first compound 6.325 µM,0.169
same,relative viability,HCC-827; first compound 20 µM,0.177
same,relative viability,LK-2; first compound 0.2 µM,0.186
same,relative viability,LK-2; first compound 2 µM,0.161
same,relative viability,LK-2; first compound 6.325 µM,0.166
same,relative viability,LK-2; first compound 20 µM,0.142
same,relative viability,NCI-H727; first compound 0.2 µM,0.513
same,relative viability,NCI-H727; first compound 0.6325 µM,0.536
same,relative viability,NCI-H727; first compound 2 µM,0.592
same,relative viability,NCI-H727; first compound 6.325 µM,0.574
same,relative viability,NCI-H727; first compound 20 µM,0.506
same,relative viability,BEN; first compound 0.2 µM,0.549
same,relative viability,BEN; first compound 0.6325 µM,0.438
same,relative viability,BEN; first compound 2 µM,0.498
same,relative viability,BEN; first compound 6.325 µM,0.482
same,relative viability,BEN; first compound 20 µM,0.346
same,relative viability,NCI-H2170; first compound 0.2 µM,0.706
same,relative viability,NCI-H2170; first compound 0.6325 µM,0.721
same,relative viability,NCI-H2170; first compound 2 µM,0.62
same,relative viability,NCI-H2170; first compound 6.325 µM,0.478
same,relative viability,NCI-H2170; first compound 20 µM,0.206
same,relative viability,NCI-H661; first compound 0.2 µM,0.35
same,relative viability,NCI-H661; first compound 0.6325 µM,0.367
same,relative viability,NCI-H661; first compound 2 µM,0.361
same,relative viability,NCI-H661; first compound 6.325 µM,0.363
same,relative viability,NCI-H661; first compound 20 µM,0.285
same,relative viability,NCI-H1993; first compound 0.2 µM,0.57
same,relative viability,NCI-H1993; first compound 0.6325 µM,0.538
same,relative viability,NCI-H1993; first compound 2 µM,0.539
same,relative viability,NCI-H1993; first compound 6.325 µM,0.518
same,relative viability,NCI-H1993; first compound 20 µM,0.433
same,relative viability,SK-MES-1; first compound 0.2 µM,0.909
same,relative viability,SK-MES-1; first compound 0.6325 µM,0.848
same,relative viability,SK-MES-1; first compound 2 µM,0.742
same,relative viability,SK-MES-1; first compound 6.325 µM,0.643
same,relative viability,SK-MES-1; first compound 20 µM,0.492
same,relative viability,HOP-62; first compound 0.2 µM,0.38
same,relative viability,HOP-62; first compound 0.6325 µM,0.378
same,relative viability,HOP-62; first compound 2 µM,0.298
same,relative viability,HOP-62; first compound 6.325 µM,0.335
same,relative viability,HOP-62; first compound 20 µM,0.184
same,relative viability,NCI-H441; first compound 0.2 µM,0.675
same,relative viability,NCI-H441; first compound 2 µM,0.599
same,relative viability,NCI-H441; first compound 6.325 µM,0.376
same,relative viability,NCI-H441; first compound 20 µM,0.312
same,relative viability,RERF-LC-KJ; first compound 0.2 µM,0.507
same,relative viability,RERF-LC-KJ; first compound 0.6325 µM,0.503
same,relative viability,RERF-LC-KJ; first compound 2 µM,0.317
same,relative viability,RERF-LC-KJ; first compound 6.325 µM,0.231
same,relative viability,RERF-LC-KJ; first compound 20 µM,0.224
same,relative viability,NCI-H1437; first compound 0.2 µM,0.395
same,relative viability,NCI-H1437; first compound 0.6325 µM,0.434
same,relative viability,NCI-H1437; first compound 2 µM,0.437
same,relative viability,NCI-H1437; first compound 6.325 µM,0.346
same,relative viability,NCI-H1437; first compound 20 µM,0.197
same,relative viability,EKVX; first compound 0.2 µM,0.474
same,relative viability,EKVX; first compound 0.6325 µM,0.357
same,relative viability,EKVX; first compound 2 µM,0.355
same,relative viability,EKVX; first compound 6.325 µM,0.28
same,relative viability,EKVX; first compound 20 µM,0.337
same,relative viability,ChaGo-K-1; first compound 0.2 µM,0.246
same,relative viability,ChaGo-K-1; first compound 0.6325 µM,0.232
same,relative viability,ChaGo-K-1; first compound 2 µM,0.204
same,relative viability,ChaGo-K-1; first compound 6.325 µM,0.196
same,relative viability,ChaGo-K-1; first compound 20 µM,0.155
same,relative viability,NCI-H2126; first compound 0.2 µM,0.831
same,relative viability,NCI-H2126; first compound 0.6325 µM,0.832
same,relative viability,NCI-H2126; first compound 2 µM,0.846
same,relative viability,NCI-H2126; first compound 6.325 µM,0.738
same,relative viability,NCI-H2126; first compound 20 µM,0.403
same,relative viability,NCI-H1944; first compound 0.2 µM,0.226
same,relative viability,NCI-H1944; first compound 0.6325 µM,0.288
same,relative viability,NCI-H1944; first compound 2 µM,0.235
same,relative viability,NCI-H1944; first compound 6.325 µM,0.231
same,relative viability,NCI-H1944; first compound 20 µM,0.143
same,relative viability,NCI-H1355; first compound 0.2 µM,0.588
same,relative viability,NCI-H1355; first compound 0.6325 µM,0.557
same,relative viability,NCI-H1355; first compound 2 µM,0.519
same,relative viability,NCI-H1355; first compound 6.325 µM,0.464
same,relative viability,NCI-H1355; first compound 20 µM,0.3

# Source: the supplement of paper PMC10307832
